Measurements as given in PubChem BioAssay (NCI).
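Where inhibition never reached the appropriate level, the endpoint shown equals the highest concentration tested. Otherwise, values were interpolated linearly from a five-concentration, 48-hour dose response in 96-well plates. GI50 is the concentration that inhibits growth by half. TGI is the concentration that stops growth completely.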

Tests used:
Assay in all cases: inhibition of tumour cell growth, NCI panel, 48 h
[1] = tested on: NCI-H226 lung
[2] = tested on: DU-145 prostate
[3] = tested on: UO-31 renal
[4] = tested on: CAKI-1 renal
[5] = tested on: EKVX NSCLC
[6] = tested on: NCI-H460 lung
[7] = tested on: LOX IMVI melanoma
[8] = tested on: HOP-62 NSCLC
[9] = tested on: OVCAR-8 ovarian
[10] = tested on: SK-MEL-28 melanoma
[11] = tested on: 786-0 renal
[12] = tested on: HOP-92 NSCLC
[13] = tested on: HCC-2998 colon
[14] = tested on: T-47D breast
[15] = tested on: SF-539 CNS
[16] = tested on: SNB-75 CNS
[17] = tested on: SR leukemia
[18] = tested on: K-562 leukemia
[19] = tested on: MOLT-4 leukemia
[20] = tested on: IGROV1 ovarian
[21] = tested on: MALME-3M melanoma
[22] = tested on: UACC-62 melanoma
[23] = tested on: M14 melanoma
[24] = tested on: TK-10 renal
[25] = tested on: NCI-H23 lung
[26] = tested on: SK-MEL-5 melanoma
[27] = tested on: HT29 colon
[28] = tested on: MDA-MB-231 breast
[29] = tested on: MDA-MB-435
[30] = tested on: SNB-19 CNS
[31] = tested on: HL-60(TB) leukemia
[32] = tested on: NCI-H522 lung
[33] = tested on: SN12C renal
[34] = tested on: BT-549 breast
[35] = tested on: OVCAR-3 ovarian
[36] = tested on: NCI/ADR-RES ovarian
[37] = tested on: ACHN renal
[38] = tested on: SK-MEL-2 melanoma
[39] = tested on: RPMI-8226 leukemia
[40] = tested on: SF-295 CNS
[41] = tested on: SW-620 colon
[42] = tested on: PC-3 prostate
[43] = tested on: UACC-257 melanoma
[44] = tested on: HCT-116 colon
[45] = tested on: U251 CNS
[46] = tested on: OVCAR-5 ovarian
[47] = tested on: COLO 205 colon
[48] = tested on: HCT-15 colon
[49] = tested on: SK-OV-3 ovarian
[50] = tested on: RXF 393 renal
[51] = tested on: OVCAR-4 ovarian
[52] = tested on: HS 578T breast
[53] = tested on: A549 NSCLC
[54] = tested on: SF-268 CNS
[55] = tested on: MCF7 breast
[56] = tested on: KM12 colon
[57] = tested on: A498 renal
[58] = tested on: CCRF-CEM leukemia

CN(C)c1ccc(/C=C\c2cccc[n+]2C)cc1
GI50 [1]: 12.2 µM
TGI [1]: > 100 µM
GI50 [2]: 20.6 µM
TGI [2]: > 100 µM
GI50 [3]: 6.43 µM
TGI [3]: > 100 µM
GI50 [4]: 3.8 µM
TGI [4]: > 100 µM
GI50 [5]: 0.489 µM
TGI [5]: > 100 µM
GI50 [6]: 15.2 µM
TGI [6]: > 100 µM
GI50 [7]: 5.31 µM
TGI [7]: 36.6 µM
GI50 [8]: 5.83 µM
TGI [8]: 90.7 µM
GI50 [9]: 4.13 µM
TGI [9]: > 100 µM
GI50 [10]: 14.8 µM
TGI [10]: 81.7 µM
GI50 [11]: 16.3 µM
TGI [11]: > 100 µM
GI50 [12]: 4.85 µM
TGI [12]: 32.8 µM
GI50 [13]: 3.68 µM
TGI [13]: 39.2 µM
GI50 [14]: 4.37 µM
TGI [14]: 65.5 µM
GI50 [15]: 12.3 µM
TGI [15]: > 100 µM
GI50 [16]: 6.26 µM
TGI [16]: 49.5 µM
GI50 [17]: 24.8 µM
TGI [17]: > 100 µM
GI50 [18]: 2.22 µM
TGI [18]: > 100 µM
GI50 [19]: 38.4 µM
TGI [19]: > 100 µM
GI50 [20]: 8.66 µM
TGI [20]: > 100 µM
GI50 [21]: 15.6 µM
TGI [21]: > 100 µM
GI50 [22]: 19.8 µM
TGI [22]: 58 µM
GI50 [23]: 10.7 µM
TGI [23]: > 100 µM
GI50 [24]: 41.1 µM
TGI [24]: > 100 µM
GI50 [25]: 4.69 µM
TGI [25]: > 100 µM
GI50 [26]: 2.99 µM
TGI [26]: 11.6 µM
GI50 [27]: 5.01 µM
TGI [27]: > 100 µM
GI50 [28]: 13.7 µM
TGI [28]: 93.2 µM
GI50 [29]: 4.16 µM
TGI [29]: > 100 µM
GI50 [30]: 4.83 µM
TGI [30]: > 100 µM
GI50 [31]: 3.09 µM
TGI [31]: > 100 µM
GI50 [32]: 10.2 µM
TGI [32]: > 100 µM
GI50 [33]: 17 µM
TGI [33]: > 100 µM
GI50 [34]: 2.76 µM
TGI [34]: 79.8 µM
GI50 [35]: 3.3 µM
TGI [35]: 30.1 µM
GI50 [36]: > 100 µM
TGI [36]: > 100 µM
GI50 [37]: 43 µM
TGI [37]: > 100 µM
GI50 [38]: 20.4 µM
TGI [38]: > 100 µM
GI50 [39]: 4.44 µM
TGI [39]: 45.2 µM
GI50 [40]: 4.33 µM
TGI [40]: > 100 µM
GI50 [41]: 3.57 µM
TGI [41]: > 100 µM
GI50 [42]: 3.04 µM
TGI [42]: > 100 µM
GI50 [43]: 7.81 µM
TGI [43]: > 100 µM
GI50 [44]: 4.16 µM
TGI [44]: > 100 µM
GI50 [45]: 4.89 µM
TGI [45]: > 100 µM
GI50 [46]: 19.2 µM
TGI [46]: > 100 µM
GI50 [47]: 1.22 µM
TGI [47]: 2.81 µM
GI50 [48]: 92.8 µM
TGI [48]: > 100 µM
GI50 [49]: 4.85 µM
TGI [49]: 52 µM
GI50 [50]: 18.2 µM
TGI [50]: > 100 µM
GI50 [51]: 4.28 µM
TGI [51]: 62.5 µM
GI50 [52]: 16.2 µM
TGI [52]: > 100 µM
GI50 [53]: 1.73 µM
TGI [53]: > 100 µM
GI50 [54]: 5.52 µM
TGI [54]: > 100 µM
GI50 [55]: 4.52 µM
TGI [55]: > 100 µM
GI50 [56]: 0.821 µM
TGI [56]: 13.4 µM
GI50 [57]: 2.53 µM
TGI [57]: 33.7 µM
GI50 [58]: 4.54 µM
TGI [58]: > 100 µM
